From patent publication US20220153732A1, “PROTEIN SECRETION INHIBITORS” (KEZAR LIFE SCIENCES, priority 2019, published 2022) come the findings set out here.

Holding throughout (assay type): cell-based
The test system of assay [1] is human multiple myeloma cell line NCI-H929. Briefly: H929 Cell Viability Assay. To be noted: 48 hr, NCI-H929 cells, Celltiter-Glo, read-out: 48 hr H929 Viability Celltiter-Glo: Mean EC50. On the procedure:
Plates were incubated at 37° C., 5% CO2 for 48 hours. After 48 hours, Celltiter-Glo® (Promega) was added to each well and luciferase signal was quantified using Tecan Infinite M1000 Pro for cell viability determination.
For chemical structures that include one or more stereoisomers, but are illustrated without indicating stereochemistry, the assay data refers to a mixture of stereoisomers.
For orientation: In ATP-based viability assays light output follows the ATP content of the culture.

In assay [2] the test system is human multiple myeloma cell line U266B1. Briefly: U266 Cell Viability Assay. To be noted: U-266, 48 hr, U266B1 cells, Celltiter-Glo, read-out: 48 hr U266 Viability Celltiter-Glo: Mean EC50. In outline: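 U266B1 myeloma cells treated with compound dilutions in DMSO/media for 48 h at 37 °C, 5% CO2. Viability read by CellTiter-Glo luminescence. Stereochemically undefined structures were tested as stereoisomer mixtures.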

Assay [3] relates to HER3-ss+4aa/Gaussia Luciferase. Briefly: Dox-Induced Her3-ss-Gluc Assay. Summed up: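 Stable T-REx cell line carrying a doxycycline-regulated HER3-ss+4aa/Gaussia luciferase insert, plated the day before assay. Compound dilutions in DMSO/media with doxycycline added, then incubated at 37° C., 5% CO2. Stereoisomer mixtures tested where stereochemistry is not drawn.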
For assay [4], the system named is PD1-ss+10aa/Gaussia Luciferase. The assay is described as follows: Dox-Induced PD1-ss-Gluc Assay. Summed up:
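Stable cell line carrying PD1-ss+10aa/Gaussia luciferase cDNA under T-REx (doxycycline-inducible) control, plated the day before assay. Compound dilutions in DMSO/media containing doxycycline added and incubated at 37° C, 5% CO2. Undefined stereocentres: data refer to stereoisomer mixtures.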

In assay [5] the test system is IL-2-FL/Gaussia Luciferase. The assay is described as follows: Dox Induced IL2-FL-Gluc Assay. Summed up:
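Stable T-REx cell line expressing doxycycline-inducible IL-2-FL/Gaussia luciferase cDNA, plated the day before assay. Compound dilutions in DMSO/media containing doxycycline added and incubated at 37° C., 5% CO2. Unspecified stereochemistry means data refer to a stereoisomer mixture.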

Assay [6] deals with TNFα-FL/Gaussia Luciferase. Briefly: Dox Induced TNFα-FL-Gluc Assay. Summed up:
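A stable T-REx cell line carrying doxycycline-inducible TNFα-FL/Gaussia luciferase was plated the day before assay. Compound dilutions in DMSO/media containing doxycycline were then added and incubated at 37° C, 5% CO2.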

Where [7] appears, read: 24 hr doxycycline induction, 293FRT/TO cells, Gaussia luciferase signal; read-out: 24 hr Dox Inducible Her3(ss + 4)Gluc 293FRT/TO: Mean IC50.
[8] abbreviates: 24 hr doxycycline induction, 293FRT/TO cells, Gaussia luciferase signal; read-out: 24 hr Dox Inducible PD1ssGluc 293FRT/TO: Mean IC50.
[9] abbreviates: 24 hr doxycycline induction, 293FRT/TO cells, Gaussia luciferase signal; read-out: 24 hr Dox Inducible IL2FLGIuc 293FRT/TO: Mean IC50.
[10] abbreviates: 24 hr doxycycline induction, 293FRT/TO cells, Gaussia luciferase signal; read-out: 24 hr Dox Inducible TNFaFLGluc 293FRT/TO: Mean IC50.
[11] abbreviates: 24 hr, doxycycline-induced, 293FRT/TO cells; read-out: 24 hr Dox Inducible Her3(ss + 4)Gluc 293FRT/TO: Mean IC50.
Setting [12] is: 24 hr, doxycycline-induced, 293FRT/TO cells; read-out: 24 hr Dox Inducible PD1ssGluc 293FRT/TO: Mean IC50.
Where [13] appears, read: 24 hr, doxycycline-induced, 293FRT/TO cells; read-out: 24 hr Dox Inducible IL2FLGIuc 293FRT/TO: Mean IC50.
[14] abbreviates: 24 hr, doxycycline-induced, 293FRT/TO cells; read-out: 24 hr Dox Inducible TNFaFLGluc 293FRT/TO: Mean IC50.

Like-named read-outs stand apart in the source and are kept apart here. A value given as a limit tells only on which side of the number the result lay.

In the case of `CC(C)OC(C)(C)c1csc(NC(=O)c2cccn2CCCCc2ccncc2)n1` [Compound A44, N-(4-(2-isopropoxypropan-2-yl)thiazol-2-yl)-1-(4-(pyridin-4-yl)butyl)-1H-pyrrole-2-carboxamide], the figures for the EC50 in assay [1] and in assay [2] were above 24.8 µM and above 25 µM, respectively. Further, the IC50 was determined as 1.48 µM in assay [3] (setting [7]), 0.963 µM in assay [4] (setting [8]), 0.837 µM in assay [5] (setting [9]) and 13.3 µM in assay [6] (setting [10]).

As to `CCCc1cnc(NC(=O)c2cccn2Cc2ccncc2)s1` [Compound A62], the EC50 in assay [1] and in assay [2] was above 25 µM throughout. For the same compound, the IC50 is 4.3 µM in assay [3] (setting [7]), 1.69 µM in assay [4] (setting [8]), 5.07 µM in assay [5] (setting [9]) and above 25 µM in assay [6] (setting [10]).

`O=C(Nc1nc([C@@H]2CCCC[C@@H]2c2ccccc2)cs1)c1cccn1Cc1ccncc1` [Compound A298]: the EC50 in assay [1] was 13.5 µM; in assay [2] it was above 25 µM. For the same compound, the IC50 in assay [3] (setting [11]) turned out to be 0.482 µM; in assay [4] (setting [12]), 0.26 µM; in assay [5] (setting [13]) it was 0.45 µM; in assay [6] (setting [14]), 1.67 µM.

As for `CC(C)(C)c1csc(NC(=O)c2cccn2Cc2ccncc2)n1` [Compound A45, N-(4-(tert-butyl)thiazol-2-yl)-1-(pyridin-4-ylmethyl)-1H-pyrrole-2-carboxamide], the EC50 in assay [1] and in assay [2] was above 25 µM in each case. Moreover, the IC50 came to 1.65 µM in assay [3] (setting [7]), 0.965 µM in assay [4] (setting [8]), 0.869 µM in assay [5] (setting [9]) and 13.8 µM in assay [6] (setting [10]).

`COc1ccccc1/C=C/c1csc(NC(=O)c2cccn2Cc2ccncc2)n1` [Compound A158, N-(4-(2-methoxystyryl)thiazol-2-yl)-1-(pyridin-4-ylmethyl)-1H-pyrrole-2-carboxamide]: the 50% effective concentration (EC50) in assay [1] was 15.7 µM; in assay [2] it was above 25 µM. Further, the IC50 in assay [3] (setting [7]) came out at 0.993 µM; in assay [4] (setting [8]), 0.293 µM; in assay [5] (setting [9]), 1.47 µM; in assay [6] (setting [10]), 2.42 µM.

`N#Cc1cnc(NC(=O)c2cccn2Cc2ccncc2)s1` [Compound B15]: the EC50 in assay [1] and in assay [2] was above 25 µM in each case. Besides, the IC50 in assay [3] (setting [11]), in assay [4] (setting [12]), in assay [5] (setting [13]) and in assay [6] (setting [14]) was above 25 µM throughout.

With `CO[C@@H]1CCN(c2ccccc2)C1c1csc(NC(=O)c2cccn2Cc2ccncc2)n1` (stereo partly drawn) [Compound A345], the EC50 in assay [1] is 0.72 µM; in assay [2] it was above 25 µM. For the same compound, the IC50 turned out to be 0.022 µM in assay [3] (setting [11]), 0.011 µM in assay [4] (setting [12]), 0.023 µM in assay [5] (setting [13]) and 0.1 µM in assay [6] (setting [14]).

With `CC(C)c1csc(CNC(=O)c2cccn2Cc2ccncc2)n1` [Compound A117, N-((4-isopropylthiazol-2-yl)methyl)-1-(pyridin-4-ylmethyl)-1H-pyrrole-2-carboxamide], the EC50 in assay [1] and in assay [2] was above 25 µM throughout. For the same compound, the IC50 in assay [3] (setting [7]), in assay [4] (setting [8]), in assay [5] (setting [9]) and in assay [6] (setting [10]) was above 25 µM throughout.

In the case of `CC(C)OC(C)(C)c1csc(NC(=O)c2ccc(CO)n2Cc2ccncc2)n1` [Compound A110, 5-(hydroxymethyl)-N-(4-(2-isopropoxypropan-2-yl)thiazol-2-yl)-1-(pyridin-4-ylmethyl)-1H-pyrrole-2-carboxamide], the EC50 in assay [1] and in assay [2] was above 25 µM throughout. Further, the IC50 in assay [3] (setting [7]), in assay [4] (setting [8]), in assay [5] (setting [9]) and in assay [6] (setting [10]) was above 25 µM throughout.

As to `O=C(Nc1nc(C2CCC(c3ccccc3)O2)cs1)c1cccn1Cc1ccncc1` (stereo not drawn) [Compound A310, N-(4-(5-phenyltetrahydrofuran-2-yl)thiazol-2-yl)-1-(pyridin-4-ylmethyl)-1H-pyrrole-2-carboxamide], the EC50 in assay [1] and in assay [2] was above 25 µM in each case. Moreover, the IC50 in assay [3] (read-out: 24 hr Dox Inducible Her3(ss + 4)Gluc 293FRT/TO: Mean IC50; 24 hr, doxycycline-induced, 293FRT/TO cells) was determined as 5.44 µM; in assay [4] (read-out: 24 hr Dox Inducible PD1ssGluc 293FRT/TO: Mean IC50; 24 hr, doxycycline-induced, 293FRT/TO cells), 2.12 µM; in assay [5] (read-out: 24 hr Dox Inducible IL2FLGIuc 293FRT/TO: Mean IC50; 24 hr, doxycycline-induced, 293FRT/TO cells), 6.99 µM; in assay [6] (read-out: 24 hr Dox Inducible TNFaFLGluc 293FRT/TO: Mean IC50; 24 hr, doxycycline-induced, 293FRT/TO cells) it was 24.6 µM.

As for `CCc1nc(NC(=O)c2cccn2Cc2cccnc2)sc1C` [Compound A131, N-(4-ethyl-5-methylthiazol-2-yl)-1-(pyridin-3-ylmethyl)-1H-pyrrole-2-carboxamide], the concentration for a half-maximal effect (EC50) in assay [1] and in assay [2] was above 25 µM in each case. Further, the IC50 in assay [3] (setting [7]), in assay [4] (setting [8]), in assay [5] (setting [9]) and in assay [6] (setting [10]) was above 25 µM in each case.

On to `O=C(Nc1nc([C@@H]2CC[C@@H](c3ccccc3)C2)cs1)c1cccn1Cc1ccncc1` (stereo in doubt) [Compound A292, N-(4-((1R,3R)-3-phenylcyclopentyl)thiazol-2-yl)-1-(pyridin-4-ylmethyl)-1H-pyrrole-2-carboxamide], for which the EC50 is 19 µM in assay [1] and above 25 µM in assay [2]. The IC50 in assay [3] (setting [7]) turned out to be 0.471 µM; in assay [4] (setting [8]) it was 0.211 µM; in assay [5] (setting [9]) it was 0.835 µM; in assay [6] (setting [10]) it was 2.51 µM.

Turning to `CC(C)OC(C)(C)c1csc(NC(=O)c2cccn2CCCc2cccnc2)n1` [Compound A190, N-(4-(2-isopropoxypropan-2-yl)thiazol-2-yl)-1-(3-(pyridin-3-yl)propyl)-1H-pyrrole-2-carboxamide], the EC50 in assay [1] and in assay [2] was above 25 µM in each case. Besides, the IC50 in assay [3] (setting [7]) was above 18.1 µM; in assay [4] (setting [8]), 5.23 µM; in assay [5] (setting [9]), 3.44 µM; in assay [6] (setting [10]) it was above 25 µM.

With `O=C(Nc1nc(/C=C/c2ccncc2)cs1)c1cccn1Cc1ccncc1` [Compound A166, N-(4-(2-(pyridin-4-yl)vinyl)thiazol-2-yl)-1-(pyridin-4-ylmethyl)-1H-pyrrole-2-carboxamide], the concentration giving a half-maximal response (EC50) in assay [1] and in assay [2] was above 25 µM each time. In addition, the IC50 was above 25 µM in assay [3] (setting [7]), 13.5 µM in assay [4] (setting [8]), above 25 µM in assay [5] (setting [9]) and above 25 µM in assay [6] (setting [10]).

On to `O=C(Nc1nc(C2=CCC(c3ccccc3)CC2)cs1)c1cccn1Cc1ccncc1` (stereo not drawn) [Compound A249, 1-(pyridin-4-ylmethyl)-N-(4-(1,2,3,6-tetrahydro-[1,1-biphenyl]-4-yl)thiazol-2-yl)-1H-pyrrole-2-carboxamide], for which the results for the concentration for a half-maximal effect (EC50) in assay [1] and in assay [2] were 19.9 µM and 14.4 µM, respectively. The IC50 in assay [3] (setting [7]) came to 0.545 µM; in assay [4] (setting [8]) it was 0.163 µM; in assay [5] (setting [9]), 0.881 µM; in assay [6] (setting [10]) it was 1.41 µM.

As to `CCc1nc(NC(=O)[C@@H]2CCCN2Cc2ccncc2)sc1C` [Compound B26, (S)-N-(4-ethyl-5-methylthiazol-2-yl)-1-(pyridin-4-ylmethyl)pyrrolidine-2-carboxamide], the concentration for a half-maximal effect (EC50) in assay [1] and in assay [2] was above 25 µM throughout. In addition, the IC50 in assay [3] (setting [11]), in assay [4] (setting [12]), in assay [5] (setting [13]) and in assay [6] (setting [14]) was above 25 µM throughout.

`O=C(Nc1nc(/C=C/c2ccc(F)cn2)cs1)c1cccn1Cc1ccncc1` [Compound A342]: the figures for the EC50 in assay [1] and in assay [2] were 23.7 µM and above 25 µM, respectively. Besides, the IC50 in assay [3] (setting [11]) was 0.952 µM; in assay [4] (setting [12]) it was 0.068 µM; in assay [5] (setting [13]), 1.4 µM; in assay [6] (setting [14]), above 25 µM.

As a reminder, the EC50 is the concentration at which the effect is half-maximal.
